Assay results from patent US20230102554A1 (GB002, INC., priority 2019, published 2023).
pIC50: −log10 of the molar value.

Experiments:
[1] = biological target: T1, Human PDGFRα, cytoplasmic domain (GST-PDGFRα) (Homo sapiens, UniProt P16234); test: Human PDGFRα biochemical inhibition assay (off-chip Mobility Shift Assay)
T1 construct: made in house

[2] = biological target: T2, Human PDGFRβ, cytoplasmic domain (GST-PDGFRβ) (Homo sapiens, UniProt P09619); test: Human PDGFRβ biochemical inhibition assay (off-chip Mobility Shift Assay)
T2 construct: made in house
T2 sequence (P09619 with tags, fused parts or gaps): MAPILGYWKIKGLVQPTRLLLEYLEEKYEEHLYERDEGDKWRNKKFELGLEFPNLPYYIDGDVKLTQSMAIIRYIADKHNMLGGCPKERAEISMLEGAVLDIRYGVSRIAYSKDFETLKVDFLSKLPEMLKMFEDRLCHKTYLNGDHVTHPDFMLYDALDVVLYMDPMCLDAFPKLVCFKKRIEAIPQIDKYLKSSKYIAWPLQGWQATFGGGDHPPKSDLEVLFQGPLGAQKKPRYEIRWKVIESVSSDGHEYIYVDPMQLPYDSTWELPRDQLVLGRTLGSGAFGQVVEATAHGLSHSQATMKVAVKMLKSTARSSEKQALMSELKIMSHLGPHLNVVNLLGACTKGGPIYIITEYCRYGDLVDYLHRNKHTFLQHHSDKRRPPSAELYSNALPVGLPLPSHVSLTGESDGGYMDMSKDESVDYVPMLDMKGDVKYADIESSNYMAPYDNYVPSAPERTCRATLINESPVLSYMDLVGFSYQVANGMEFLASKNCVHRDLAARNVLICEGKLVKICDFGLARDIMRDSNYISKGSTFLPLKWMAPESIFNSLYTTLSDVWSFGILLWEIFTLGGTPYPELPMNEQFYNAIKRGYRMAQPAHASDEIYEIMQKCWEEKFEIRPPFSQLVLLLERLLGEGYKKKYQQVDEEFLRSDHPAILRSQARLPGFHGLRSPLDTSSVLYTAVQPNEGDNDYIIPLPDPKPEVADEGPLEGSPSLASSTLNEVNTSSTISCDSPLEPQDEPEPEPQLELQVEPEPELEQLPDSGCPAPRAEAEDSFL
Procedure, shortened: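 GST-tagged cytoplasmic domain (aa 557-1106) from baculovirus was incubated 1 h at room temperature with compound, CSKtide, ATP at Km and Mg²⁺ in HEPES buffer, pH 7.5. Phosphorylated and unphosphorylated peptide were separated by off-chip mobility shift, and the product ratio P/(P+S) gave percent inhibition.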

T1 sequence (P16234 550-1089 T674I): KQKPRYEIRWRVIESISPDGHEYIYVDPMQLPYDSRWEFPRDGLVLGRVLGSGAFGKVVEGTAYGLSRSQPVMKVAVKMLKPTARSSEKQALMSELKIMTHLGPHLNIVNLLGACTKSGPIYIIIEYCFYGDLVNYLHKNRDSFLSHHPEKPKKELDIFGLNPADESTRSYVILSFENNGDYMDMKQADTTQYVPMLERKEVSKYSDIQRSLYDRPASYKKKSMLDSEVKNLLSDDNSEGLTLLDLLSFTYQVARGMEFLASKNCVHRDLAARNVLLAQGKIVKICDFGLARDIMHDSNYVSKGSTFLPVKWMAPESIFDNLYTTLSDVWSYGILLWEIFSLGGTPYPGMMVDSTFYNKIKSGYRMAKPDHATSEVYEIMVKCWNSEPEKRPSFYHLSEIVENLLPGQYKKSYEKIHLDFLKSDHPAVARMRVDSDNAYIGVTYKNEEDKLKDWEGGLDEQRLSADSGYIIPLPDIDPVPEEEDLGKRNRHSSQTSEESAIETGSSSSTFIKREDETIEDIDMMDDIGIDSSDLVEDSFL

pIC50 [1]	pIC50 [2]	SMILES
≤ 6.00	≤ 6.00	CCc1ccc(NC(=O)c2ccc(C(F)(F)F)nc2)cc1[C@H](C)Nc1cnc2cn(CC)nc2n1 [Compound 516, (S)-N-(4-ethyl-3-(1-((2-ethyl-2H-pyrazolo[3,4-b]pyrazin-6-yl)amino)ethyl)phenyl)-6-(trifluoromethyl)nicotinamide]
> 6.52	6.00 to 6.52	CCn1cc2ncc(N[C@@H](C)c3cccc(NC(=O)c4cnc(COC)s4)c3)nc2n1 [Compound 338, (S)-N-(3-(1-((2-ethyl-2H-pyrazolo[3,4-b]pyrazin-6-yl)amino)ethyl)phenyl)-2-(methoxymethyl)thiazole-5-carboxamide]
> 6.52	6.00 to 6.52	Cc1cc(C(=O)Nc2cccc([C@H](C)Nc3cnc4cnn(C)c4n3)c2)ccc1C(=O)OCC(C)C [Compound 263, isobutyl (S)-2-methyl-4-((3-(1-((1-methyl-1H-pyrazolo[3,4-b]pyrazin-6-yl)amino)ethyl)phenyl)carbamoyl)benzoate]
> 6.52	≤ 6.00	C[C@H](Nc1cnc2cn[nH]c2n1)c1cccc(NC(=O)c2cncc(CO)c2)c1 [Compound 92, (S)-N-(3-(1-((1H-pyrazolo[3,4-b]pyrazin-6-yl)amino)ethyl)phenyl)-5-(hydroxymethyl) nicotinamide]
> 6.52	> 6.52	Cc1cc(C(=O)Nc2cccc([C@H](C)Nc3cnc4cnn(C)c4n3)c2)ccc1O [Compound 240, (S)-4-hydroxy-3-methyl-N-(3-(1-((1-methylH-pyrazolo[3,4-b]pyrazin-6-yl)amino)ethyl)phenyl)benzamide]
> 6.52	> 6.52	CCn1cc2ncc(N[C@@H](C)c3cccc(NC(=O)c4ccc(CN5CC6(COC6)C5)c(C)c4)c3)nc2n1 [Compound 414, (S)-4-((2-oxa-6-azaspiro[3.3]heptan-6-yl)methyl)-N-(3-(1-((2-ethyl-2H-pyrazolo[3,4-b]pyrazin-6-yl)amino)ethyl)phenyl)-3-methylbenzamide]
> 6.52	≤ 6.00	CCn1cc2ncc(N[C@@H](C)c3cccc(NC(=O)Cc4ccc(C)c(C)n4)c3)nc2n1 [Compound 716, (S)-2-(5,6-dimethylpyridin-2-yl)-N-(3-(1-((2-ethyl-2H-pyrazolo[3,4-b]pyrazin-6-yl)amino)ethyl)phenyl)acetamide]
> 6.52	> 6.52	C=Cc1ncc(C(=O)Nc2cccc([C@H](C)Nc3cnc4cnn(C)c4n3)c2)cc1C [Compound 245, (S)-5-methyl-N-(3-(1-((1-methyl-1H-pyrazolo[3,4-b]pyrazin-6-yl)amino)ethyl)phenyl)-6-vinylnicotinamide]
> 6.52	> 6.52	CCn1cc2ncc(N[C@@H](C)c3cc(NC(=O)c4cnc(OCC5CC5)c(C)c4)ccc3F)nc2n1 [Compound 318, (S)-6-(cyclopropylmethoxy)-N-(3-(1-((2-ethyl-2H-pyrazolo[3,4-b]pyrazin-6-yl)amino)ethyl)-4-fluorophenyl)-5-methylnicotinamide]
> 6.52	6.00 to 6.52	CCn1cc2ncc(N[C@@H](C)c3cccc(NC(=O)Cc4cccc(C(F)(F)F)n4)c3)nc2n1 [Compound 642, (S)-N-(3-(1-((2-ethyl-2H-pyrazolo[3,4-b]pyrazin-6-yl)amino)ethyl)phenyl)-2-(6-(trifluoromethyl)pyridin-2-yl) acetamide]
> 6.52	> 6.52	CCn1cc2ncc(N[C@@H](C)c3cccc(NC(=O)c4cnc(N(C)C)c(C)c4)c3)nc2n1 [Compound 348, (S)-6-(dimethylamino)-N-(3-(1-((2-ethyl-2H-pyrazolo[3,4-b]pyrazin-6-yl)amino)ethyl)phenyl)-5-methylnicotinamide]
> 6.52	> 6.52	CCOc1ccc(C(=O)Nc2cccc([C@H](C)Nc3cnc4[nH]nc(C)c4n3)c2)cn1 [Compound 537, (S)-6-ethoxy-N-(3-(1-((3-methyl-1H-pyrazolo[3,4-b]pyrazin-5-yl)amino)ethyl)phenyl)nicotinamide]
> 6.52	> 6.52	CCn1cc2ncc(N[C@@H](C)c3cccc(NC(=O)c4ccc(Cl)s4)c3)nc2n1 [Compound 293, (S)-5-chloro-N-(3-(1-((2-ethyl-2H-pyrazolo[3,4-b]pyrazin-6-yl)amino)ethyl)phenyl)thiophene-2-carboxamide]
> 6.52	> 6.52	CCn1cc2ncc(N[C@@H](C)c3cc(NC(=O)c4ccc(C(F)(F)F)nc4)ccc3C)nc2n1 [Compound 455, (S)-N-(3-(1-((2-ethyl-2H-pyrazolo[3,4-b]pyrazin-6-yl)amino)ethyl)-4-methylphenyl)-6-(trifluoromethyl)nicotinamide]
> 6.52	> 6.52	CCn1cc2ncc(N[C@@H](C)c3cccc(NC(=O)c4ccc5c(c4)OC(F)(F)O5)c3)nc2n1 [Compound 442, (S)-N-(3-(1-((2-ethyl-2H-pyrazolo[3,4-b]pyrazin-6-yl)amino)ethyl)phenyl)-2,2-difluorobenzo[d][1,3]dioxole-5-carboxamide]
> 6.52	> 6.52	C[C@H](Nc1cnc2cnn(C)c2n1)c1cccc(NC(=O)c2cc(C(F)(F)F)n(C)n2)c1 [Compound 164, (S)-1-methyl-N-(3-(1-((1-methyl-1H-pyrazolo[3,4-b]pyrazin-6-yl)amino)ethyl)phenyl)-5-(trifluoromethyl)-1H-pyrazole-3-carboxamide]
> 6.52	> 6.52	Cc1cncc(C(=O)Nc2cccc([C@H](C)Nc3cnc4[nH]nc(C)c4c3)c2)c1 [Compound 14, (S)-5-methyl-N-(3-(1-((3-methyl-1H-pyrazolo[3,4-b]pyridin-5-yl)amino)ethyl)phenyl)nicotinamide]
≤ 6.00	≤ 6.00	COc1ccc(Cn2ccc3ncc(N[C@@H](C)c4cccc(NC(=O)c5cncc(C)c5)c4)cc32)cc1OC [Compound 81, (S)-N-(3-(1-((1-(3,4-dimethoxybenzyl)-1H-pyrrolo [3,2-b]pyridin-6-yl)amino)ethyl)phenyl)-5-methylnicotinamide]
> 6.52	> 6.52	CCn1cc2ncc(N[C@@H](C)c3cccc(NC(=O)c4cnc(OC)c(Cl)c4)c3)nc2n1 [Compound 356, (S)-5-chloro-N-(3-(1-((2-ethyl-2H-pyrazolo[3,4-b]pyrazin-6-yl)amino)ethyl)phenyl)-6-methoxynicotinamide]
> 6.52	> 6.52	CCn1cc2ncc(N[C@@H](C)c3cccc(NC(=O)c4ccc(N5CCN(C)CC5)c(C(F)(F)F)c4)c3)nc2n1 [Compound 436, (S)-N-(3-(1-((2-ethyl-2H-pyrazolo[3,4-b]pyrazin-6-yl)amino)ethyl)phenyl)-4-(4-methylpiperazin-1-yl)-3-(trifluoromethyl)benzamide]
> 6.52	6.00 to 6.52	CCn1cc2ncc(N[C@@H](C)c3cc(NC(=O)Cc4cnc(C)c(F)c4)ccc3C)nc2n1 [Compound 707, (S)-N-(3-(1-((2-ethyl-2H-pyrazolo[3,4-b]pyrazin-6-yl)amino)ethyl)-4-methylphenyl)-2-(5-fluoro-6-methylpyridin-3-yl)acetamide]
> 6.52	> 6.52	CNc1ncc(C(=O)Nc2cccc([C@H](C)Nc3cnc4cnn(C)c4n3)c2)cc1C [Compound 130, (S)-5-methyl-N-(3-(1-((1-methyl-1H-pyrazolo[3,4-b]pyrazin-6-yl)amino)ethyl)phenyl)-6-(methylamino) nicotinamide]
> 6.52	> 6.52	Cc1cc(C(=O)Nc2cccc([C@H](C)Nc3cnc4cnn(C)c4n3)c2)ccc1CN1CCSCC1 [Compound 237, (S)-3-methyl-N-(3-(1-((1-methyl-1H-pyrazolo[3,4-b]pyrazin-6-yl)amino)ethyl)phenyl)-4-(thiomorpholinomethyl) benzamide]
> 6.52	> 6.52	Cc1cc2ncc(N[C@@H](C)c3cc(NC(=O)c4ccc(C5CC5)nc4)ccc3F)nc2s1 [Compound 612, (S)-6-cyclopropyl-N-(4-fluoro-3-(1-((6-methylthieno[2,3-b]pyrazin-3-yl)amino)ethyl)phenyl)nicotinamide]
> 6.52	> 6.52	Cc1cc(C(=O)Nc2cccc([C@H](C)Nc3cnc4cnn(C)c4n3)c2)ccc1CN1CCN(C)CC1 [Compound 208, (S)-3-methyl-N-(3-(1-((1-methyl-1H-pyrazolo[3,4-b]pyrazin-6-yl)amino)ethyl)phenyl)-4-((4-methylpiperazin-1-yl)methyl)benzamide]
≤ 6.00	≤ 6.00	Cc1cncc(C(=O)Nc2cccc([C@H](C)Nc3cncc4[nH]ncc34)c2)c1 [Compound 749, (S)-N-(3-(1-((1H-pyrazolo[3,4-c]pyridin-4-yl)amino)ethyl)phenyl)-5-methylnicotinamide]
> 6.52	> 6.52	C[C@H](Nc1cnc2cnn(C)c2n1)c1cccc(NC(=O)c2cnc3c(c2)OCCO3)c1 [Compound 69, (S)-N-(3-(1-((1-methyl-1H-pyrazolo[3,4-b]pyrazin-6-yl)amino)ethyl)phenyl)-2,3-dihydro-[1,4]dioxino[2,3-b] pyridine-7-carboxamide]
> 6.52	> 6.52	CCn1cc2ncc(N[C@@H](C)c3cccc(NC(=O)c4cnc(Br)c(C)c4)c3)nc2n1 [Compound 350, (S)-6-bromo-N-(3-(1-((2-ethyl-2H-pyrazolo[3,4-b]pyrazin-6-yl)amino)ethyl)phenyl)-5-methylnicotinamide]
6.00 to 6.52	≤ 6.00	CCn1cc2ncc(N[C@@H](C)c3cccc(NC(=O)c4cnc5[nH]nc(C)c5c4)c3)nc2n1 [Compound 61, (S)-N-(3-(1-((2-ethyl-2H-pyrazolo[3,4-b]pyrazin-6-yl)amino)ethyl)phenyl)-3-methyl-1H-pyrazolo[3,4-b]pyridine-5-carboxamide]
